# System: Ba/F3-CDM cells (Ba/F3 transfected with CD8-MerTK)
# Test: In cell MER kinase assay, Ba/F3-CDM cell proliferation without IL-3 (Celltiter-Glo, GI50)
# Format: cell-based, murine
# Details: 48 hours, read-out: Cell growth inhibition (GI50)
# Method: In Cell MER Kinase Assay Using BaF3 Cellular System
# To establish an in cell kinase assay for MerTK kinase, the IL-3 dependent Ba/F3 cells of murine lymphoid origin was transfected with CD8-MerTK. […] For a routine cellular assay, Ba/F3-CDM cells were seeded at 2,000 cells per well in 384-well cell culture plate containing DMEM/10% FBS culture media and incubated for 24 hours before addition of compounds pre-diluted in culture media. Following compound treatment, cells were further incubated for 48 hours and the proliferation was measured. To discriminate a Ba/F3 growth inhibition by a specific inhibition of MerTK kinase following compound treatment vs growth inhibition due to a non-specific unintended cytotoxicity of compounds, we routinely carried out control sets of Ba/F3 cells in parallel that grown in IL3-supplemented growth media. In the presence of IL-3, the proliferation of Ba/F3 is no longer dependent on the MerTK activity. Cell growth and proliferation was measured with Celltiter-Glo™ system (Promega, USA) according to the manufacturer's instruction. The half-maximal growth inhibitory concentration (GI50) value was calculated with Prism6.0 software (GraphPad, USA).
row,GI50 [nM],SMILES
1,> 1000,"Cc1cccc(C)c1CO[C@H]1CCC[C@@H]1NC(=O)c1cc(-c2cnn(C)c2)cnc1N [Example 15, 2-amino-N-((1S,2S)-2-((2,6-dimethylbenzyl)oxy)cyclopentyl)-5-(1-methyl-1H-pyrazol-4-yl)nicotinamide]"
2,> 1000,CCc1cc(CO[C@H]2CCC[C@@H]2NC(=O)c2cc(-c3cnn(C)c3)cnc2N)ccc1C [Example 21]
3,< 100,"CN(C)c1ccc(-c2ccc(CO[C@H]3CCC[C@@H]3NC(=O)c3cc(-c4cnn(C)c4)cnc3N)cc2)cc1 [Example 137, 2-amino-N-((1S,2S)-2-((4′-(dimethylamino)-[1,1′-biphenyl]-4-yl)methoxy)cyclopentyl)-5-(1-methyl-1H-pyrazol-4-yl)nicotinamide]"
4,> 1000,"Cn1cc(-c2cnc(N)c(C(=O)N[C@H]3CCC[C@@H]3OCc3ccc(-c4ccc(CCN)cc4)cc3)c2)cn1 [Example 145, 2-amino-N-((1S,2S)-2-((4′-(2-aminoethyl)-[1,1′-biphenyl]-4-yl)methoxy)cyclopentyl)-5-(1-methyl-1H-pyrazol-4-yl)nicotinamide]"
5,< 100,"CN1CCN(c2ccc(-c3ccc(CO[C@H]4CCC[C@@H]4NC(=O)c4cc(-c5cnn(C)c5)cnc4N)cc3)cc2)CC1 [Example 146, 2-amino-5-(1-methyl-1H-pyrazol-4-yl)-N-((1S,2S)-2-((4′-(4-methylpiperazin-1-yl)-[1,1′-biphenyl]-4-yl)methoxy)cyclopentyl)nicotinamide]"
6,> 1000,"CN1CCN(c2ccc(-c3ccc(CO[C@H]4CCC[C@@H]4NC(=O)c4cc(-c5cnn(C)c5)cnc4N)cc3)cn2)CC1 [Example 148, 2-amino-5-(1-methyl-1H-pyrazol-4-yl)-N-((1S,2S)-2-((4-(6-(4-methylpiperazin-1-yl)pyridin-3-yl)benzyl)oxy)cyclopentyl)nicotinamide]"
7,< 100,"CN1CCN(Cc2ccc(-c3ccc(CO[C@H]4CCC[C@@H]4NC(=O)c4cc(-c5cnn(C)c5)cnc4N)c(F)c3)cc2)CC1 [Example 156, 2-amino-N-((1S,2S)-2-((3-fluoro-4′-((4-methylpiperazin-1-yl)-methyl)-[1,1′-biphenyl]-4-yl)methoxy)cyclopentyl)-5-(1-methyl-1H-pyrazol-4-yl)-nicotinamide]"
8,< 100,"CN1CCN(CCc2ccc(-c3ccc(CO[C@H]4CCC[C@@H]4NC(=O)c4cc(-c5cnn(C)c5)cnc4N)cc3)cc2)CC1 [Example 161, 2-amino-5-(1-methyl-1H-pyrazol-4-yl)-N-((1S,2S)-2-((4′-(2-(4-methylpiperazin-1-yl)ethyl)-[1,1′-biphenyl]-4-yl)methoxy)cyclopentyl)nicotinamide]"
9,> 1000,"Cn1cc(-c2cnc(N)c(C(=O)N[C@H]3CCC[C@@H]3OCc3ccc(-c4ccc(CN5CCC(O)CC5)cc4)cc3)c2)cn1 [Example 180, 2-amino-N-((1S,2S)-2-((4′-((4-hydroxypiperidin-1-yl)methyl)-[1,1′-biphenyl]-4-yl)methoxy)cyclopentyl)-5-(1-methyl-1H-pyrazol-4-yl)nicotinamide]"
10,< 100,"Cn1cc(-c2cnc(N)c(C(=O)N[C@H]3CCC[C@@H]3OCc3ccc(-c4ccc(CN5CCN(CCO)CC5)cc4)cc3)c2)cn1 [Example 181, 2-amino-N-((1S,2S)-2-((4′-((4-(2-hydroxyethyl)piperazin-1-yl)-methyl)-[1,1′-biphenyl]-4-yl)methoxy)cyclopentyl)-5-(1-methyl-1H-pyrazol-4-yl)-nicotinamide]"
11,< 100,"Cn1cc(-c2cnc(N)c(C(=O)N[C@H]3CCC[C@@H]3OCc3ccc(-c4ccc(CN5CCN(CC(C)(C)O)CC5)cc4)cc3)c2)cn1 [Example 182, 2-amino-N-((1S,2S)-2-((4′-((4-(2-hydroxy-2-methylpropyl)-piperazin-1-yl)methyl)-[1,1′-biphenyl]-4-yl)methoxy)cyclopentyl)-5-(1-methyl-1H-pyrazol-4-yl)nicotinamide]"
12,< 100,"CCN1CCN(Cc2ccc(-c3ccc(CO[C@H]4CCC[C@@H]4NC(=O)c4cc(-c5cnn(C)c5)cnc4N)cc3)cc2)CC1 [Example 183, 2-amino-N-((1S,2S)-2-((4′-((4-ethylpiperazin-1-yl)methyl)-[1,1′-biphenyl]-4-yl)methoxy)cyclopentyl)-5-(1-methyl-1H-pyrazol-4-yl)nicotinamide]"
13,< 100,"Cn1cc(-c2cnc(N)c(C(=O)N[C@H]3CCC[C@@H]3OCc3ccc(-c4ccc(CN5CCN(C6CC6)CC5)cc4)cc3)c2)cn1 [Example 184, 2-amino-N-((1S,2S)-2-((4′-((4-cyclopropylpiperazin-1-yl)methyl)-[1,1′-biphenyl]-4-yl)methoxy)cyclopentyl)-5-(1-methyl-1H-pyrazol-4-yl)nicotinamide]"
14,< 100,"C[C@@H]1CN(Cc2ccc(-c3ccc(CO[C@H]4CCC[C@@H]4NC(=O)c4cc(-c5cnn(C)c5)cnc4N)cc3)cc2)CCN1C [Example 186, 2-amino-N-((1S,2S)-2-((4′-(((R)-3,4-dimethylpiperazin-1-yl)-methyl)-[1,1′-biphenyl]-4-yl)methoxy)cyclopentyl)-5-(1-methyl-1H-pyrazol-4-yl)-nicotinamide]"
15,< 100,"C[C@@H]1CN(C)CCN1Cc1ccc(-c2ccc(CO[C@H]3CCC[C@@H]3NC(=O)c3cc(-c4cnn(C)c4)cnc3N)cc2)cc1 [Example 187, 2-amino-N-((1S,2S)-2-((4′-(((R)-2,4-dimethylpiperazin-1-yl)-methyl)-[1,1′-biphenyl]-4-yl)methoxy)cyclopentyl)-5-(1-methyl-1H-pyrazol-4-yl)-nicotinamide]"
16,< 100,"CCC1CN(Cc2ccc(-c3ccc(CO[C@H]4CCC[C@@H]4NC(=O)c4cc(-c5cnn(C)c5)cnc4N)cc3)cc2)CCN1C (stereo partly drawn) [Example 188, 2-amino-N-((1S,2S)-2-((4′-((3-ethyl-4-methylpiperazin-1-yl)-methyl)-[1,1′-biphenyl]-4-yl)methoxy)cyclopentyl)-5-(1-methyl-1H-pyrazol-4-yl)-nicotinamide]"
17,100 to 500,"C[C@@H]1CN(Cc2ccc(-c3ccc(CO[C@H]4CCC[C@@H]4NC(=O)c4cc(-c5cnn(C)c5)cnc4N)cc3)cc2)C[C@H](C)N1 [Example 189, 2-amino-N-((1S,2S)-2-((4′-((cis-3,5-dimethylpiperazin-1-vi)-methyl)-[1,1′-biphenyl]-4-yl)methoxy)cyclopentyl)-5-(1-methyl-1H-pyrazol-4-yl)-nicotinamide]"
18,100 to 500,"CC1CN[C@@H](C)CN1Cc1ccc(-c2ccc(CO[C@H]3CCC[C@@H]3NC(=O)c3cc(-c4cnn(C)c4)cnc3N)cc2)cc1 (stereo partly drawn) [Example 191, 2-amino-N-((1S,2S)-2-((4′-((trans-2,5-dimethylpiperazin-1-yl)methyl)-[1,1′-biphenyl]-4-yl)methoxy)cyclopentyl)-5-(1-methyl-1H-pyrazol-4-yl)nicotinamide]"
19,< 100,"CN(C)C1CCN(Cc2ccc(-c3ccc(CO[C@H]4CCC[C@@H]4NC(=O)c4cc(-c5cnn(C)c5)cnc4N)cc3)cc2)C1 (stereo partly drawn) [Example 193, 2-amino-N-((1S,2S)-2-((4′-((3-(dimethylamino)pyrrolidin-1-yl)methyl)-[1,1′-biphenyl]-4-yl)methoxy)cyclopentyl)-5-(1-methyl-1H-pyrazol-4-yl)nicotinamide]"
20,< 100,"CN1CCN(Cc2ccc(-c3ccc(CO[C@H]4CCC[C@@H]4NC(=O)c4nc(-c5cnn(C)c5)cnc4N)cc3)cc2)CC1 [Example 194, 3-amino-6-(1-methyl-1H-pyrazol-4-yl)-N-((1S,2S)-2-((4′-((4-methylpiperazin-1-yl)methyl)-[1,1′-biphenyl]-4-yl)methoxy)cyclopentyl)pyrazine-2-carboxamide]"
21,< 100,"CN1CCN(Cc2ccc(-c3ccc(CO[C@H]4CCC[C@@H]4NC(=O)c4cc(-c5cnn(C)c5)cnc4N)cc3)cc2F)CC1 [Example 195, 2-amino-N-((1S,2S)-2-((3′-fluoro-4′-((4-methylpiperazin-1-yl)-methyl)-[1,1′-biphenyl]-4-yl)methoxy)cyclopentyl)-5-(1-methyl-1H-pyrazol-4-yl)-nicotinamide]"
22,< 100,"CN1CCN(Cc2ccc(-c3ccc(CO[C@H]4CCC[C@@H]4NC(=O)c4cc(-c5cnn(C)c5)cnc4N)cc3)cc2C(F)(F)F)CC1 [Example 197, 2-amino-5-(1-methyl-1H-pyrazol-4-yl)-N-((1S,2S)-2-((4′-((4-methylpiperazin-1-yl)methyl)-3′-(trifluoromethyl)-[1,1′-biphenyl]-4-yl)methoxy)-cyclopentyl)nicotinamide]"
23,< 100,"Cc1cc(-c2ccc(CO[C@H]3CCC[C@@H]3NC(=O)c3cc(-c4cnn(C)c4)cnc3N)cc2)ccc1CN1CCN(C)CC1 [Example 198, 2-amino-5-(1-methyl-1H-pyrazol-4-yl)-N-((1S,2S)-2-((3′-methyl-4′-((4-methylpiperazin-1-yl)methyl)-[1,1′-biphenyl]-4-yl)methoxy)cyclopentyl)-nicotinamide]"
24,< 100,"CN1CCN(Cc2ccc(-c3ccc(CO[C@H]4CCC[C@@H]4NC(=O)c4cc(-c5cnn(C)c5)cnc4N)cc3)cc2O)CC1 [Example 199, 2-amino-N-((1S,2S)-2-((3′-hydroxy-4′-((4-methylpiperazin-1-yl)methyl)-[1,1′-biphenyl]-4-yl)methoxy)cyclopentyl)-5-(1-methyl-1H-pyrazol-4-yl)nicotinamide]"
25,< 100,"Cn1cc(-c2cnc(N)c(C(=O)N[C@H]3CCC[C@@H]3OCc3ccc(-c4ccc(CN5CCN(CCO)CC5)c(C(F)(F)F)c4)cc3)c2)cn1 [Example 205, 2-amino-N-((1S,2S)-2-((4′-((4-(2-hydroxyethyl)piperazin-1-yl)methyl)-3′-(trifluoromethyl)-[1,1′-biphenyl]-4-yl)methoxy)cyclopentyl)-5-(1-methyl-1H-pyrazol-4-yl)nicotinamide]"

# — patent US10947215B2, “Heteroaryl compounds and their use as therapeutic drugs” (Dong-A Socio Holdings Co., Ltd., priority 2015, dated 2021)
